The subject of assay [1] is L4 helminth larvae. Nature of the assay: scale of larval motility. On the set-up: key: 0=death; 1=very low motility; 2=low motility; 3=normal motility. It is filed as cell-based, trichuris spp. To be noted: L4 helminth larvae in culture with drug; scale 0 to 3 points. The method, then:
The rats of the Sprague-Dawley vivarium strain, parasites naive, were infected with different kinds of […]. Trichuria trichuris infected eggs). Approximately 3 g of feces were placed in culture bottles. The feces were cultured to produce worms or larvae (L4 stage) at a temperature of 37° C. for 72 hours. In order to determine the in vitro anthelmintic effectiveness the larval migration inhibition test was used. […] The tubes were incubated at 37° C. for 16 hours. The total content of these tubes, 0.5 ml, was transferred to the filters located within the acrylic tubes and grown at room temperature for 18 hours to allow the larvae to migrate through the filters within the chamber. Then, the filters were removed from the chambers and the total number of larvae in the filters and in chambers was counted. 2) Another method for the larval motility assessment was using the “scale of larval motility” in the various tubes with the different drugs and the control group. The scale of motility is a scale from 0 to 3 points, wherein 0=death; 1=very low motility; 2=low motility and 3=normal motility.

For assay [2], the system named is Giardia intestinalis trophozoites. Nature of the assay: in vitro antiprotozoal effectiveness in intestinal Giardia culture (morphology, adhesion, viability of trophozoites). To be noted: for Mobility Ranking / Ranking of trophozoites adhesion: 2 μg/ml (combination 1 + 1 μg/ml). The method, then:
1) The in vitro antiprotozoal effectiveness of the pharmaceutical combination of NTZX with […] was determined in an intestinal Giardia culture as compared with the NTZX and MBDZ active ingredients separately. In this study the morphology, the adhesion and the viability of the Giardias trophozoites was assessed in in vitro cultures.
The antiparasitic agents used were NTZX at a 2 μg/ml concentration; MBDZ at a 2 μg/ml concentration and a pharmaceutical combination of 1 μg/ml NTZX and 1 μg/ml MBDZ. The trophozoites were obtained from the intestines of rats (Sprague-Dawley vivarium strain) previously infected with Giardia intestinalis.
The trophozoites were isolated in a BI-S33 culture media containing 10% bovine serum without added antibiotic. From this media, 4.5 ml were extracted, which were separated in 8 glass tubes with screw caps. […] 4 of the tubes were exposed to the drugs for 4 hours and the other 4 tubes were exposed to the drugs for 24 hours. After the established periods of time were over (4 to 24 hours) the tubes underwent centrifugation (5 minutes at 500 rpm), where the supernatant was extracted and removed. The decanted material was then dyed with a 0.1% eosin solution to assess the viability of trophozoites: • a. The adhesion and growth uniformity of trophozoites was assessed, using an optical microscope in 5-10 fields (×100 and ×200). For this, a table was drafted describing the following:
• b. The trophozoites viability rate was assessed, by using a Neubauer camera to the optical microscope. The percentage of non-viable trophozoites was estimated as compared with the total state of trophozoites (live and immobile). • c. The mobility and morphology of the trophozoites was assessed. Mobility is divided into:
The normal morphology of trophozoites under the optical microscope is characterized by the following: unicellular organism, with pyriform morphology, bilateral symmetry, flagellated, bi-nucleated (vacuolar complex) on its dorsal face. Any change in morphology was correspondingly detailed.

In assay [3] the test system is L4 (larva or adult worm) of different kinds of helminths (eg. trichuris spp). Nature of the assay: inhibition of larval migration test. The note with it: 100 μg/ml (combination: 50 μg/ml NTZX and 50 μg/ml MBDZ), 16 hours at 37° C., then 18 hours migration. It is filed as cell-based. An excerpt:
1) In order to determine the in vitro anthelmintic effectiveness of the pharmaceutical combination of NTZX and MBDZ the “inhibition of larval migration test” was used, which was developed by […] et al. (1992) and modified by Rable et al. (1994) and Paolini et al. 2004). […] The rats of the Sprague-Dawley vivarium strain, parasites naive, were infected with different kinds of […]. Trichuria trichuris infected eggs). Approximately 3 g of feces were placed in culture bottles. The feces were cultured to produce worms or larvae (L4 stage) at a temperature of 37° C. for 72 hours. In order to determine the in vitro anthelmintic effectiveness the larval migration inhibition test was used. […] The tubes were incubated at 37° C. for 16 hours. The total content of these tubes, 0.5 ml, was transferred to the filters located within the acrylic tubes and grown at room temperature for 18 hours to allow the larvae to migrate through the filters within the chamber. Then, the filters were removed from the chambers and the total number of larvae in the filters and in chambers was counted. The larval migration inhibition (LMI) was determined using the following formula: [formula] Wherein A=larvae migrated ratio in the control and B=larvae migrated ratio in the treatments.

[4] abbreviates: 24 hours of exposure, optical microscope.

In assay [1], `COC(=O)Nc1nc2ccc(C(=O)c3ccccc3)cc2[nH]1` [MBDZ, Mebendazole] had a Motility scale of 1. Also, in assay [2] (4 hours of drug exposure), the “Mobility Ranking” value was found to be 2 and the “Ranking of trophozoites adhesion” value is 4 (25-50). In assay [2] (24 hours of drug exposure), the “Mobility Ranking” value is recorded as 1 and the “Ranking of trophozoites adhesion” value was 5 (50-100). Further, the “microscopic morphological changes of trophozoites” value in assay [2] (setting [4]) is recorded as “some trophozoites were globular, some folded, some of distorted forms (partial loss of bilateral symmetry)”. In addition, in assay [3], the parasites migration was 30%. The inhibition at 100 µg/mL in assay [3] (Trichuris, read-out: larval migration inhibition (LMI)) was 70%.

Turning to `CC(=O)Oc1ccccc1C(=O)Nc1ncc([N+](=O)[O-])s1` [NTZX, Nitazoxanide], the Motility scale in assay [1] amounted to 2. For the same compound, in assay [2] (4 hours of drug exposure), the “Mobility Ranking” value turned out to be 2 and the “Ranking of trophozoites adhesion” value is reported as 5 (50-100). In assay [2] (24 hours of drug exposure), the “Mobility Ranking” value is 1 and the “Ranking of trophozoites adhesion” value is recorded as 7 (250-500). In assay [2] (setting [4]), the “adhered trophozoites (in words)” value is on record as “The amount of adhered trophozoites was moderate”; the “microscopic morphological changes of trophozoites” value was “globular trophozoites (very enlarged), a moderate amount of folded trophozoites and partial loss of dorsal vacuolar complex”; the “mobility of trophozoites (in words)” value was “A low number of motile trophozoites (mostly in situ) and erratic movements”. In assay [3], the “larval migration inhibition (LMI)” value is 60% and the parasites migration is 40%.

Source of the values: patent publication US20150250765A1, “NITAZOXANIDE AND MEBENDAZOLE SYNERGIC COMPOSITION, PROCESSES FOR THE PREPARATION THEREOF, AND USE OF SAID COMPOSITION FOR THE TREATMENT OF HUMAN PARASITOSIS” (priority 2012, published 2015).
